# System: HCT-116
# Assay: MTT cell viability, HCT-116
# Type: cell-based
# Details: Homo sapiens, colon cancer, 48 h of drug treatment, average of three experiments
# Description: (§1) Cell culture: In this study five different cancer cell lines were used, human lung carcinoma (A549), human breast adenoma (MCF-7), Cervical carcinoma (Hela), hepatocellular carcinoma (Hep3B), and colorectal adenocarcinoma (HCT-116). These cells were obtained from the European Collection of Cell Cultures (ECACC, UK). Hep3B cells were maintained in Dulbecco's Modified Eagle Medium (DMEM: Sigma-Aldrich), and the four other cell lines were maintained in Roswell Park Memorial Institute medium (RPMI, Sigma-Aldrich, St. Louis, Mo., USA), which was supplemented with 10% fetal bovine serum (FBS, Sigma-Aldrich) and 1% penicillin/streptomycin (Sigma-Aldrich). Cells were incubated all the time at 37° C. in a humidified atmosphere of 5% CO2. Cell viability studies: Cell viability was assessed using the MTT assay as described before. In brief, all cancer cell lines were seeded at a density of 4×10^4/well in 96 well flat-bottom plates. After 24 h from seeding, cells were treated with the synthesized compounds and left for an incubation period of 48 h. Upon reaching the indicated time point, the media was removed and replaced with 200 μL fresh media containing 0.5 mg/mL of MTT tetrazolium dye (Sigma-Aldrich). Cells were then incubated with MTT solution for 2 h at 37° C. The resultant formazan crystals were dissolved in 200 μl/well of DMSO and absorbance was measured at 570 nm using a microplate reader (Thermo Scientific).
row,IC50,Compound
1,3.39 ± 0.04 µM,COc1ccc2c(c1)c1c3n2[C@@]2(C=C/C(=N\Nc4ccc(C(F)(F)F)cc4)CC2)CC[C@@H]3NCC1 [Compound 1k]
2,1.96 ± 0.05 µM,FC(F)(F)Oc1ccc(N/N=C2\C=C[C@@]3(CC2)CC[C@@H]2NCCc4c2n3c2ccccc42)cc1 [Compound 1f]

# System: HELA
# Assay: MTT cell viability, HELA
# Type: cell-based
# Details: Homo sapiens, cervical cancer, 48 h of drug treatment, average of three experiments
# Description: as §1
row,IC50,Compound
1,4.514 ± 0.03 µM,COc1ccc2c(c1)c1c3n2[C@@]2(C=C/C(=N\Nc4ccc(C(F)(F)F)cc4)CC2)CC[C@@H]3NCC1 [Compound 1k]
2,3.89 ± 0.07 µM,FC(F)(F)Oc1ccc(N/N=C2\C=C[C@@]3(CC2)CC[C@@H]2NCCc4c2n3c2ccccc42)cc1 [Compound 1f]

# System: A549
# Assay: MTT cell viability, A549
# Type: cell-based
# Details: Homo sapiens, lung cancer, 48 h of drug treatment, average of three experiments
# Description: as §1
row,IC50,Compound
1,5.491 ± 0.05 µM,COc1ccc2c(c1)c1c3n2[C@@]2(C=C/C(=N\Nc4ccc(C(F)(F)F)cc4)CC2)CC[C@@H]3NCC1 [Compound 1k]
2,5.99 ± 0.03 µM,FC(F)(F)Oc1ccc(N/N=C2\C=C[C@@]3(CC2)CC[C@@H]2NCCc4c2n3c2ccccc42)cc1 [Compound 1f]

# System: HEP3B
# Assay: MTT cell viability, HEP3B
# Type: cell-based
# Details: Homo sapiens, liver cancer, 48 h of drug treatment, average of three experiments
# Description: as §1
row,IC50,Compound
1,2.276 ± 0.01 µM,COc1ccc2c(c1)c1c3n2[C@@]2(C=C/C(=N\Nc4ccc(C(F)(F)F)cc4)CC2)CC[C@@H]3NCC1 [Compound 1k]
2,2.64 ± 0.03 µM,FC(F)(F)Oc1ccc(N/N=C2\C=C[C@@]3(CC2)CC[C@@H]2NCCc4c2n3c2ccccc42)cc1 [Compound 1f]

# System: MCF-7
# Assay: MTT cell viability, MCF-7
# Type: cell-based
# Details: Homo sapiens, MCF7; breast cancer; 48 h of drug treatment; average of three experiments
# Description: as §1
row,IC50,Compound
1,3.57 ± 0.34 µM,COc1ccc2c(c1)c1c3n2[C@@]2(C=C/C(=N\Nc4ccc(C(F)(F)F)cc4)CC2)CC[C@@H]3NCC1 [Compound 1k]
2,3.56 ± 0.1 µM,FC(F)(F)Oc1ccc(N/N=C2\C=C[C@@]3(CC2)CC[C@@H]2NCCc4c2n3c2ccccc42)cc1 [Compound 1f]

# System: MRSA-1 (clinical isolate)
# Assay: MIC broth microdilution, MRSA-1
# Type: cell-based, Staphylococcus aureus
# Details: Staphylococcus aureus, MRSA; overnight incubation, Mueller-Hinton broth; read-out: MIC MRSA-1 (clinical isolate)
# Method: (§2) Antibacterial activity: The compounds were tested for the minimum inhibitory concentrations (MIC), which is the lowest concentration of a chemical required to inhibit visible microbial growth following overnight incubation. MIC values were determined using broth microdilution method according to the Clinical and Laboratory Standards Institute guidelines (CLSI, 2015, M07-A10). Mueller-Hinton broth was used as a culture medium in all the experiments. Exponentially growing bacterial cells were prepared in Mueller-Hinton broth at a concentration of approximately 5×10^5 CFU/mL. Two-fold serial dilutions of the test compound (8 concentrations ranged between 100-0.78 μg/mL) were tested. […] In each experiment, solvent (DMSO) was used as a negative control, un-treated control (composing of bacteria in Mueller-Hinton broth) was used as a growth control, blank (culture media alone) was used as sterility control. The 96-well microplate with the test compounds was incubated overnight at 37° C. Turbidity in wells indicated bacterial growth.
# (§3) The compounds were tested on six MDR Gram-positive bacteria including three clinical isolates of methicillin-resistant Staphylococcus aureus (MRSA-1, MRSA-2 and MRSA-3) and three reference MRSA strains (ATCC33591, ATCC33592 and ATCC700699). They were also tested on three MDR Gram-negative bacteria including New Delhi metallo-beta-lactamase (NDM-1) positive, carbapenem-resistant E. coli (ATCC BAA2469), extended-spectrum beta-lactamase (ESBL) producing, colistin-resistant E. coli (CDC-AR-0346) and carbapenem-resistant Acinetobacter baumannii (ATCC BAA1605), in addition to two non-MDR bacteria from the same species, namely E. coli (ATCC 25922) Acinetobacter baumannii (ATCC 19606).
row,MIC,Compound
1,1.56 mg/L,COc1ccc2c(c1)c1c3n2[C@@]2(C=C/C(=N\Nc4ccc(C(F)(F)F)cc4)CC2)CC[C@@H]3NCC1 [Compound 1k]
2,6.25 mg/L,FC(F)(F)Oc1ccc(N/N=C2\C=C[C@@]3(CC2)CC[C@@H]2NCCc4c2n3c2ccccc42)cc1 [Compound 1f]

# System: MRSA-2 (clinical isolate)
# Assay: MIC broth microdilution, MRSA-2
# Type: cell-based, Staphylococcus aureus
# Details: Staphylococcus aureus, MRSA; overnight incubation, Mueller-Hinton broth; read-out: MIC MRSA-2 (clinical isolate)
# Method: as §2, §3
row,MIC,Compound
1,1.56 mg/L,COc1ccc2c(c1)c1c3n2[C@@]2(C=C/C(=N\Nc4ccc(C(F)(F)F)cc4)CC2)CC[C@@H]3NCC1 [Compound 1k]
2,6.25 mg/L,FC(F)(F)Oc1ccc(N/N=C2\C=C[C@@]3(CC2)CC[C@@H]2NCCc4c2n3c2ccccc42)cc1 [Compound 1f]

# System: MRSA-3 (clinical isolate)
# Assay: MIC broth microdilution, MRSA-3
# Type: cell-based, Staphylococcus aureus
# Details: Staphylococcus aureus, MRSA; overnight incubation, Mueller-Hinton broth; read-out: MIC MRSA-3 (clinical isolate)
# Method: as §2, §3
row,MIC,Compound
1,1.56 mg/L,COc1ccc2c(c1)c1c3n2[C@@]2(C=C/C(=N\Nc4ccc(C(F)(F)F)cc4)CC2)CC[C@@H]3NCC1 [Compound 1k]
2,6.25 mg/L,FC(F)(F)Oc1ccc(N/N=C2\C=C[C@@]3(CC2)CC[C@@H]2NCCc4c2n3c2ccccc42)cc1 [Compound 1f]

# System: MRSA-ATCC33591
# Assay: MIC broth microdilution, MRSA ATCC33591
# Type: cell-based, Staphylococcus aureus
# Details: Staphylococcus aureus; overnight incubation, Mueller-Hinton broth; read-out: MIC MRSA-ATCC33591
# Method: as §2, §3
row,MIC,Compound
1,3.12 mg/L,COc1ccc2c(c1)c1c3n2[C@@]2(C=C/C(=N\Nc4ccc(C(F)(F)F)cc4)CC2)CC[C@@H]3NCC1 [Compound 1k]
2,6.25 mg/L,FC(F)(F)Oc1ccc(N/N=C2\C=C[C@@]3(CC2)CC[C@@H]2NCCc4c2n3c2ccccc42)cc1 [Compound 1f]

# System: MRSA-ATCC33592
# Assay: MIC broth microdilution, MRSA ATCC33592
# Type: cell-based, Staphylococcus aureus
# Details: Staphylococcus aureus; overnight incubation, Mueller-Hinton broth; read-out: MIC MRSA-ATCC33592
# Method: as §2, §3
row,MIC,Compound
1,3.12 mg/L,COc1ccc2c(c1)c1c3n2[C@@]2(C=C/C(=N\Nc4ccc(C(F)(F)F)cc4)CC2)CC[C@@H]3NCC1 [Compound 1k]
2,6.25 mg/L,FC(F)(F)Oc1ccc(N/N=C2\C=C[C@@]3(CC2)CC[C@@H]2NCCc4c2n3c2ccccc42)cc1 [Compound 1f]

# System: MRSA-ATCC700699 (VISA)
# Assay: MIC broth microdilution, MRSA ATCC700699 (VISA)
# Type: cell-based, Staphylococcus aureus
# Details: Staphylococcus aureus; strain intermediately resistant to vancomycin; overnight incubation; read-out: MIC MRSA-ATCC700699 (VISA)
# Method: as §2, §3
row,MIC,Compound
1,3.12 mg/L,COc1ccc2c(c1)c1c3n2[C@@]2(C=C/C(=N\Nc4ccc(C(F)(F)F)cc4)CC2)CC[C@@H]3NCC1 [Compound 1k]
2,6.25 mg/L,FC(F)(F)Oc1ccc(N/N=C2\C=C[C@@]3(CC2)CC[C@@H]2NCCc4c2n3c2ccccc42)cc1 [Compound 1f]

# System: E. coli ATCC25922
# Assay: MIC broth microdilution, E. coli ATCC25922
# Type: cell-based, Escherichia coli
# Details: Escherichia coli, ATCC25922; not MDR; overnight incubation
# Method: as §2, §3
row,MIC,Compound
1,6.25 mg/L,COc1ccc2c(c1)c1c3n2[C@@]2(C=C/C(=N\Nc4ccc(C(F)(F)F)cc4)CC2)CC[C@@H]3NCC1 [Compound 1k]
2,12.5 mg/L,FC(F)(F)Oc1ccc(N/N=C2\C=C[C@@]3(CC2)CC[C@@H]2NCCc4c2n3c2ccccc42)cc1 [Compound 1f]

# System: E. coli ATCC BAA2469 (NDM-1 carbapenem-resistant)
# Assay: MIC broth microdilution, E. coli ATCC BAA2469
# Type: cell-based, Escherichia coli
# Details: Escherichia coli, ATCCBAA2469, MDR; overnight incubation
# Method: as §2, §3
row,MIC,Compound
1,25 mg/L,COc1ccc2c(c1)c1c3n2[C@@]2(C=C/C(=N\Nc4ccc(C(F)(F)F)cc4)CC2)CC[C@@H]3NCC1 [Compound 1k]
2,25 mg/L,FC(F)(F)Oc1ccc(N/N=C2\C=C[C@@]3(CC2)CC[C@@H]2NCCc4c2n3c2ccccc42)cc1 [Compound 1f]

# System: E. coli CDC-AR-0346 (ESBL, colistin resistant)
# Assay: MIC broth microdilution, E. coli CDC-AR-0346
# Type: cell-based, Escherichia coli
# Details: Escherichia coli; MDR; overnight incubation
# Method: as §2, §3
row,MIC,Compound
1,50 mg/L,COc1ccc2c(c1)c1c3n2[C@@]2(C=C/C(=N\Nc4ccc(C(F)(F)F)cc4)CC2)CC[C@@H]3NCC1 [Compound 1k]
2,25 mg/L,FC(F)(F)Oc1ccc(N/N=C2\C=C[C@@]3(CC2)CC[C@@H]2NCCc4c2n3c2ccccc42)cc1 [Compound 1f]

# System: Acinetobacter baumannii ATCC 19606
# Assay: MIC broth microdilution, A. baumannii ATCC 19606
# Type: cell-based
# Details: Acinetobacter baumannii, ATCC19606; not MDR; overnight incubation
# Method: as §2, §3
row,MIC,Compound
1,6.25 mg/L,COc1ccc2c(c1)c1c3n2[C@@]2(C=C/C(=N\Nc4ccc(C(F)(F)F)cc4)CC2)CC[C@@H]3NCC1 [Compound 1k]
2,12.5 mg/L,FC(F)(F)Oc1ccc(N/N=C2\C=C[C@@]3(CC2)CC[C@@H]2NCCc4c2n3c2ccccc42)cc1 [Compound 1f]

# System: Acinetobacter baumannii ATCC BAA1605 (carbapenem-resistant)
# Assay: MIC broth microdilution, A. baumannii ATCC BAA1605
# Type: cell-based
# Details: Acinetobacter baumannii, ATCCBAA1605, MDR; overnight incubation
# Method: as §2, §3
row,MIC,Compound
1,50 mg/L,COc1ccc2c(c1)c1c3n2[C@@]2(C=C/C(=N\Nc4ccc(C(F)(F)F)cc4)CC2)CC[C@@H]3NCC1 [Compound 1k]
2,25 mg/L,FC(F)(F)Oc1ccc(N/N=C2\C=C[C@@]3(CC2)CC[C@@H]2NCCc4c2n3c2ccccc42)cc1 [Compound 1f]

# Reference: US11286258B2, “Nature-inspired anticancer and antibacterial motifs and pharmaceutical composition thereof” (University of Sharjah, priority 2020, dated 2022)
